The results in this text go back to EP2121694B1, “CYCLOPROPYL FUSED INDOLOBENZAZEPINE HCV NS5B INHIBITORS” (Bristol-Myers Squibb Company, priority 2007, dated 2008).

The structures appear in SMILES notation. Read-outs that look alike come from different tables or passages of the source. Some results are limits rather than exact numbers.

The target in experiment [1] is T1, HCV NS5B (Hepatitis C virus genotype 1b, UniProt Q9WMX2).
T1 construct: The protein was expressed with an 18 amino acid C-terminal truncation to enhance the solubility; made in house; host or cells: E. coli BL21(DE3), pET21a vector
T1 sequence (Q9WMX2 2420-2992): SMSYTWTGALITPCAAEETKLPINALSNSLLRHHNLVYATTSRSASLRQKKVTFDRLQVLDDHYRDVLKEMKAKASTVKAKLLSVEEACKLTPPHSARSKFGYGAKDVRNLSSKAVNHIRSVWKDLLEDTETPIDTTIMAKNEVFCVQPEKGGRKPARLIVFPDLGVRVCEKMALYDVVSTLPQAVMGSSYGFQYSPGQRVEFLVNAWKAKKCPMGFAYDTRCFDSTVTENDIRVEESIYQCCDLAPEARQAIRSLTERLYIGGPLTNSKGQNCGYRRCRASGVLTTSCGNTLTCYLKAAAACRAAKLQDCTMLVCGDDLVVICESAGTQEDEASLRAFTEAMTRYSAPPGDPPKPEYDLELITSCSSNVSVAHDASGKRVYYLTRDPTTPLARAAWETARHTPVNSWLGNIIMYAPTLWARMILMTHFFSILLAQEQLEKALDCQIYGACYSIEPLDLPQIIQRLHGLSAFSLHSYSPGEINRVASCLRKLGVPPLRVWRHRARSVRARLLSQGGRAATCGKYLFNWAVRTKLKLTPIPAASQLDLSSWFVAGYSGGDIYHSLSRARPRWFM
The experiment in a line: Modified HCV NS5B RdRp enzyme assay (preincubation protocol). The format is biochemical. The settings on record: HCV NS5B RdRp genotype 1b. As to the method:
HCV NS5B RdRp cloning, expression, and purification. The cDNA encoding the NS5B protein of HCV, genotype 1b, was cloned into the pET21a expression vector. The protein was expressed with an 18 amino acid C-terminal truncation to enhance the solubility. The E. coli competent cell line BL21(DE3) was used for expression of the protein. Cultures were grown at 37 °C for ∼ 4 hours until the cultures reached an optical density of 2.0 at 600 nm. The cultures were cooled to 20 °C and induced with 1 mM IPTG. Fresh ampicillin was added to a final concentration of 50 µg/ml and the cells were grown overnight at 20 °C.
Cell pellets (3L) were lysed for purification to yield 15-24 mgs of purified NS5B. The lysis buffer consisted of 20 mM Tris-HCl, pH 7.4, 500 mM NaCl, 0.5% triton X-100, 1 mM DTT, 1mM EDTA, 20% glycerol, 0.5 mg/ml lysozyme, 10 mM MgCl2, 15 ug/ml deoxyribonuclease I, and Complete TM protease inhibitor tablets (Roche). After addition of the lysis buffer, frozen cell pellets were resuspended using a tissue homogenizer. To reduce the viscosity of the sample, aliquots of the lysate were sonicated on ice using a microtip attached to a Branson sonicator. The sonicated lysate was centrifuged at 100,000 x g for 1hr at 4 °C and filtered through a 0.2 µm filter unit (Corning).
The protein was purified using three sequential chromatography steps: Heparin sepharose CL-6B, polyU sepharose 4B, and Hitrap SP sepharose (Pharmacia). The chromatography buffers were identical to the lysis buffer but contained no lysozyme, deoxyribonuclease I, MgCl2 or protease inhibitor and the NaCl concentration of the buffer was adjusted according to the requirements for charging the protein onto the column. Each column was eluted with a NaCl gradient which varied in length from 5-50 column volumes depending on the column type. After the final chromatography step, the resulting purity of the enzyme is >90% based on SDS-PAGE analysis. The enzyme was aliquoted and stored at -80 °C.
Standard HCV NS5B RdRp enzyme assay. HCV RdRp genotype 1b assays were run in a final volume of 60 µl in 96 well plates (Costar 3912). The assay buffer is composed of 20 mM Hepes, pH 7.5, 2.5 mM KCl, 2.5 mM MgCl2, 1 mM DTT, 1.6 U RNAse inhibitor (Promega N2515), 0.1 mg/ml BSA (Promega R3961), and 2 % glycerol. All compounds were serially diluted (3-fold) in DMSO and diluted further in water such that the final concentration of DMSO in the assay was 2%. HCV RdRp genotype 1b enzyme was used at a final concentration of 28 nM. A polyA template was used at 6 nM, and a biotinylated oligo-dT12 primer was used at 180 nM final concentration. Template was obtained commercially (Amersham 27-4110). Biotinylated primer was prepared by Sigma Genosys. 3H-UTP was used at 0.6 µCi (0.29 µM total UTP). Reactions were initiated by the addition of enzyme, incubated at 30 °C for 60 min, and stopped by adding 25 µl of 50 mM EDTA containing SPA beads (4 µg/µl, Amersham RPNQ 0007). Plates were read on a Packard Top Count NXT after >1hr incubation at room temperature.
Modified HCV NS5B RdRp enzyme assay. A modified enzyme assay was performed essentially as described for the standard enzyme assay except for the following: The biotinylated oligo dT12 primer was precaptured on streptavidin-coated SPA beads by mixing primer and beads in assay buffer and incubating at room temperature for one hour. Unbound primer was removed after centrifugation. The primer-bound beads were resuspended in 20 mM Hepes buffer, pH 7.5 and used in the assay at final concentrations of 20 nM primer and 0.67 µg/µl beads. Order of addition in the assay: enzyme (14 nM) was added to diluted compound followed by the addition of a mixture of template (0.2 nM) , 3H-UTP (0.6 µCi, 0.29 µM), and primer-bound beads, to initiate the reaction; concentrations given are final. Reactions were allowed to proceed for 4 hours at 30° C.
IC50 values for compounds were determined using seven different [I]. […]

Experiment [2] concerns HCV replicon. The experiment in a line: HCV FRET screening assay in HCV replicon cells. The format is cell-based. The conditions noted are these: Hepatitis C virus. An excerpt:
FRET Assay Preparation. To perform the HCV FRET screening assay, 96-well cell culture plates were used. The FRET peptide (Anaspec, Inc.) (Taliani et al., Anal. Biochem. 1996, 240, 60-67) contains a fluorescence donor, EDANS, near one end of the peptide and an acceptor, DABCYL, near the other end. The fluorescence of the peptide is quenched by […] resonance energy transfer (RET) between the donor and the acceptor, but as the NS3 protease cleaves the peptide the products are released from RET quenching and the fluorescence of the donor becomes apparent. The assay reagent was made as follows: 5X cell Luciferase cell culture lysis reagent from Promega (#E153A) diluted to 1X with dH2O, NaCl added to 150 mM final, the FRET peptide diluted to 20 uM final from a 2 mM stock.
To prepare plates, HCV replicon cells, with or without a Renilla luciferase reporter gene, were trypsinized and placed into each well of a 96-well plate with titrated test compounds added in columns 3 through 12; columns 1 and 2 contained a control compound (HCV protease inhibitor), and the bottom row contained cells without compound. The plates were then placed in a CO2 incubator at 37 °C.
Assays. Subsequent to addition of the test compounds described above (FRET Assay Preparation), at various times the plate was removed and Alamar blue solution (Trek Diagnostics, #00-100) was added per well as a measure of cellular toxicity. After reading in a Cytoflour 4000 instrument (PE Biosystems), plates were rinsed with PBS and then used for FRET assay by the addition of 30 ul of the FRET peptide assay reagent described above (FRET Assay Preparation) per well. The plate was then placed into the Cytoflour 4000 instrument which had been set to 340 excite/490 emission, automatic mode for 20 cycles and the plate read in a kinetic mode. Typically, the signal to noise using an endpoint analysis after the reads was at least three-fold. Alternatively, after Alamar blue reading, plates were rinsed with PBS, 50 ul of DMEM (high glucose) without phenol red was added and plates were then used for luciferase assay using the Promega Dual-Glo Luciferase Assay System.
Compound analysis was determined by quantification of the relative HCV replicon inhibition and the relative cytotoxicity values. To calculate cytoxicity values, the average Alamar Blue fluorescence signals from the control wells were set as 100% non-toxic. The individual signals in each of the compound test wells were then divided by the average control signal and multiplied by 100% to determine […]. To calculate the HCV replicon inhibition values, an average background value was obtained from the two wells containing the highest amount of HCV protease inhibitor at the end of the assay period. These numbers were similar to those obtained from naïve Huh-7 cells.
The background numbers were then subtracted from the average signal obtained from the control wells and this number was used as 100% activity. The individual signals in each of the compound test wells were then divided by the averaged control values after background subtraction and multiplied by 100% to determine percent activity. EC50 values for a protease inhibitor titration were calculated as the concentration which caused a 50% reduction in FRET or luciferase activity. The two numbers generated for the compound plate, percent cytoxicity and percent activity were used to determine compounds of interest for further analysis.

Setting [3] is: HCV replicon cells, FRET assay, read-out: EC50.

`C[C@@H]1CN(C(=O)C23CC2c2c(OC(F)(F)F)cccc2-c2c(C4CCCCC4)c4ccc(C(=O)NS(=O)(=O)N(C)C)cc4n2C3)C[C@H](C)O1` (stereo partly shown) yielded an IC50 in experiment [1] of 0.097 to 1 µM. Further, the EC50 in experiment [2] (setting [3]) fell in the range of 0.097 to 1 µM.

`COc1ccc2c(c1)C1CC1(C(=O)N1CCOC[C@H]1CN)Cn1c-2c(C2CCCCC2)c2ccc(C(=O)NS(=O)(=O)N(C)C)cc21` (stereo partly shown): the IC50 in experiment [1] lay in the range of 0.097 to 1 µM. Further, the EC50 in experiment [2] (setting [3]) lay within 0.097 to 1 µM.

On to `COCC1CN(C(=O)C23CC2c2cc(OC)ccc2-c2c(C4CCCCC4)c4ccc(C(=O)NS(=O)(=O)N(C)C)cc4n2C3)CCO1` (stereo not shown), for which, in experiment [1], the IC50 lay within 0.097 to 1 µM. In experiment [2], this compound showed an EC50 of 0.097 to 1 µM.

`COc1ccc2c(c1)C1CC1(C(=O)N1CCCN(C)CC1)Cn1c-2c(C2CCCCC2)c2ccc(C(=O)NS(=O)(=O)N(C)C)cc21` (stereo not shown) [drawing 58] registered an IC50 in experiment [1] of 0.097 to 1 µM. In addition, the concentration giving a half-maximal response (EC50) in experiment [2] (setting [3]) lay in the range of 0.097 to 1 µM.

`COC(=O)c1ccc2c(C3CCCCC3)c3n(c2c1)CC1(C(=O)OC)CC1c1c(OC(F)(F)F)cccc1-3` (stereo not shown): the IC50 in experiment [1] is greater than 10 µM. Moreover, the EC50 in experiment [2] (setting [3]) was greater than 0.12 µM.

Compound `CCN(CC)CCN(CCN(CC)CC)C(=O)C12CC1c1cc(OC)ccc1-c1c(C3CCCCC3)c3ccc(C(=O)NS(=O)(=O)N(C)C)cc3n1C2` (stereo not shown) registered a half-inhibitory concentration (IC50) in experiment [1] of 0.097 to 1 µM. Also, the EC50 in experiment [2] (setting [3]) fell in the range of 0.097 to 1 µM.

For the compound `COC(=O)C12CC1c1cc(O)ccc1-c1c(C3CCCCC3)c3ccc(C(=O)OC(C)(C)C)cc3n1C2` (stereo not shown), the half-inhibitory concentration (IC50) in experiment [1] lay within 1 to 10 µM. In addition, in experiment [2] (setting [3]), the EC50 is greater than 1 µM.

`COc1ccc2c(c1)C1CC1(C(=O)N1C[C@@H](C)O[C@@H](C)C1)Cn1c-2c(C2CCCCC2)c2ccc(C(=O)NS(=O)(=O)C3CC3)cc21` (stereo partly shown) had an IC50 in experiment [1] of 0.097 to 1 µM. In addition, the half-maximal effective concentration (EC50) in experiment [2] (setting [3]) is 0.097 to 1 µM.

For the compound `COc1ccc2c(c1)C1CC1(C(=O)N1CCCN(C)CC1)Cn1c-2c(C2CCCCC2)c2ccc(C(=O)NS(=O)(=O)C3CC3)cc21` (stereo not shown), the IC50 in experiment [1] was 0.097 to 1 µM. Also, the EC50 in experiment [2] (setting [3]) was in the range of 0.097 to 1 µM.

In turn, `CCN(CC)CCN(C)C(=O)C12CC1c1cc(OC)ccc1-c1c(C3CCCCC3)c3ccc(C(=O)NS(=O)(=O)N(C)C)cc3n1C2` (stereo not shown) registered an IC50 in experiment [1] of 0.097 to 1 µM. Besides, in experiment [2] (setting [3]), the EC50 lay within 0.097 to 1 µM.

In turn, `COc1ccc2c(c1)C1CC1(C(=O)N1CC[C@H](N(C)C)C1)Cn1c-2c(C2CCCCC2)c2ccc(C(=O)NS(=O)(=O)C3CC3)cc21` (stereo partly shown) showed an IC50 in experiment [1] of 0.097 to 1 µM. The concentration for a half-maximal effect (EC50) in experiment [2] (setting [3]) fell in the range of 0.097 to 1 µM.

`COc1ccc2c(c1)C1CC1(C(=O)N(C)CCN(C)C)Cn1c-2c(C2CCCCC2)c2ccc(C(=O)NS(=O)(=O)N(C)C)cc21` (stereo not shown) came in with an IC50 in experiment [1] of 0.097 to 1 µM. Besides, the EC50 in experiment [2] (setting [3]) fell in the range of 0.097 to 1 µM.

Consider `COc1ccc2c(c1)C1CC1(C(=O)N1CCC(F)(F)CC1)Cn1c-2c(C2CCCCC2)c2ccc(C(=O)NS(=O)(=O)N(C)C)cc21` (stereo not shown), for which, in experiment [1], the half-inhibitory concentration (IC50) fell in the range of 0.097 to 1 µM. Besides, in experiment [2] (setting [3]), the EC50 was 0.097 to 1 µM.

Consider `COc1ccc2c(c1)C1CC1(C(=O)N1CCC(C)(O)CC1)Cn1c-2c(C2CCCCC2)c2ccc(C(=O)NS(=O)(=O)N3CCC3)cc21` (stereo not shown), for which the IC50 in experiment [1] was 0.097 to 1 µM. Moreover, the EC50 in experiment [2] (setting [3]) fell in the range of 0.097 to 1 µM.
